Experiments:
[1] = Rat dental caries model: body weight; assay type: in vivo, Wistar rats
Protocol: (§1) SPF female Wistar rats (about 3 weeks old) were obtained and housed in a barrier environment with constant temperature and humidity, with 12 h of light and 12 h of darkness. All rats were acclimated to the environment and diet in a week before experiment, and then were randomly divided into groups according to body weight. The rats were randomly divided into 4 groups according to body weight with 10 rats in each group, among which one group was set as the blank control group (blank group), one group was set as the dental caries model group (dental caries group), and two groups were set as the intervention group. The intervention groups were wiped S. sobrinus continuously for 7 days, and after confirming that S. sobrinus was successfully colonized in the rat's oral cavity, the corresponding experimental groups were wiped chlorhexidine (chlorhexidine group) and LS97 (LS97 group) continuously for 7 days respectively, and then 3 times a week. Chlorhexidine, an ionic drug with good antibacterial effect, was used as a positive control group. The cariogenic bacteria S. sobrinus and LS97 were both cultured overnight for 12 h. After adjusted to a bacterial concentration of 1×10^8 CFU/mL, 0.2 mL of bacterial suspension was wiped onto the rat molars by sterile cotton swab, and namely, the cotton swab that absorbed bacterial suspension sufficiently worked on each quarter of the rat's oral teeth for the same 15 s. During the experiment, except for the blank control group fed normal feed and drinking water, other groups were all fed cariogenic feed Diet 2000# and drinking water added with 5% sucrose, in which the main components of cariogenic feed are shown in Table 4. The experimental period was maintained for 10 weeks.

[2] = tested on: Streptococcus sobrinus; test: Rat dental caries model: oral S. sobrinus count and Keyes caries score; assay type: in vivo, Wistar rats
Protocol: as §1
At the 3rd, 7th, and 10th weeks of the experiment (corresponding to the early, middle and late stages of the experiment, respectively), the first, second and third samplings were performed on the oral teeth of rats, and samples were spread on MRS solid medium added with vancomycin of 12 μg/mL for Streptococcus sobrinus count.
After the rat experiment was finished, the rats were killed and the rat molars were taken out. The molars were placed in a 0.4% murexide dye liquor and soaked for 12 h overnight for dyeing. After the molars were rinsed by clean water and dried naturally, the caries lesion condition of rat molars in each group was observed under a stereo microscope. Caries scoring was performed on the rat teeth by using the Keyes caries scoring method. According to Keyes' classic method for evaluating dental caries, the lesion degree of dental caries is divided into four grades: E-grade caries, caries lesion involving enamel only; Ds-grade caries, enamel caries lesion and caries lesion involving the outer dentin less than ¼; Dm-grade caries, caries lesion involving the dentin thickness within ¼ to ¾; Dx-grade caries, caries lesion involving the dentin thickness more than ¾, and the result is shown in FIG. 4.

[3] = Keyes caries scoring, FIG. 4, versus dental caries model group

[H]/N=C(\N/C(=N/[H])NCCCCCCNC(=N)NC(=N)Nc1ccc(Cl)cc1)Nc1ccc(Cl)cc1 [Chlorhexidine]
Body weight of rats after the experiment ([1]; 10 weeks): 212.49 ± 23.86 g
Rat body weight increment ([1]; 10 weeks): 147.83 ± 19.73 g
Body weight of rats before the experiment ([1]; baseline): 60.32 ± 5.28 g
Effect on Dm caries (in words) [2, 3]: not obvious
Effect on E caries and Ds caries (in words) [2, 3]: effectively reduced
Change of the number of Streptococcus sobrinus in the oral cavity (in words) ([2]; after intervention, chlorhexidine statement refers to the third test): showed an increment circumstance
Count of Streptococcus sobrinus in oral sampling ([2]; sampling number 1, 3rd week): 5.53 ± 0.23 Log value
Count of Streptococcus sobrinus in oral sampling ([2]; sampling number 2, 7th week): 4.00 ± 0.19 Log value
Count of Streptococcus sobrinus in oral sampling ([2]; sampling number 3, 10th week): 4.31 ± 0.13 Log value
